The values that follow come from patent publication US20140135310A1, “SULPHONAMIDE DERIVATIVES OF ALICYCLIC AMINES FOR THE TREATMENT OF CENTRAL NERVOUS SYSTEM DISEASES” (Adamed Sp. z o.o., priority 2011, published 2014).

Where two headings read alike, the source gives them in different places.

Holding throughout (assay type): cell-based
Test [1] deals with D3 dopaminergic receptors (Homo sapiens, UniProt P35462). Put plainly: Cellular functional assay, D3 dopaminergic receptors. The note with it: D3 (h), CHO cells; for D3 ag [%]: agonism, percent of control specific agonist response (0.3 μM dopamine for control); for D3 antag [%]: antagonism, stimulus dopamine (10 nM). The gist of the method: (§1)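 Responses expressed as percent of control specific agonist response; EC50 or IC50 from Hill-equation nonlinear fits of mean replicate concentration-response curves. For antagonists, Kb derived by modified Cheng-Prusoff using reference agonist concentration and its EC50.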

Test [2] addresses 5-HT7 serotoninergic receptors (Homo sapiens, UniProt P34969). Briefly: Cellular functional assay, 5-HT7 serotoninergic receptors. The conditions noted are these: for 5-HT7 ag [%]: agonist mode, percent of control specific agonist response. A digest of the protocol: as §1
For test [3], the target named is 5-HT2A serotoninergic receptors (Homo sapiens, UniProt P28223). Put plainly: Cellular functional assay, 5-HT2A serotoninergic receptors. The gist of the method:
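Response expressed as percent of control specific agonist response; EC50 or IC50 from Hill-equation non-linear regression on mean replicate values. For antagonists, apparent Kb derived by modified Cheng-Prusoff using reference agonist concentration and its EC50.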

The target in test [4] is D2 dopaminergic receptors (Homo sapiens, UniProt P14416). Put plainly: Cellular functional assay, D2 dopaminergic receptors. The conditions noted are these: D2S (h), HEK-293 cells; for D2 ag [%]: agonism, percent of control specific agonist response (3 μM dopamine for control); for D2 antag [%]: antagonism, stimulus dopamine (30 nM). The gist of the method:
as §1

The target in test [5] is 5-HT6 serotoninergic receptors (Homo sapiens, UniProt P50406). Put plainly: Cellular functional assay, 5-HT6 serotoninergic receptors. The conditions noted are these: agonist mode; percent of control specific agonist response. The gist of the method: as §1
The target in test [6] is T1, 5-HT2C serotoninergic receptors (Homo sapiens, UniProt P28335).
T1 sequence (P28335 33-458): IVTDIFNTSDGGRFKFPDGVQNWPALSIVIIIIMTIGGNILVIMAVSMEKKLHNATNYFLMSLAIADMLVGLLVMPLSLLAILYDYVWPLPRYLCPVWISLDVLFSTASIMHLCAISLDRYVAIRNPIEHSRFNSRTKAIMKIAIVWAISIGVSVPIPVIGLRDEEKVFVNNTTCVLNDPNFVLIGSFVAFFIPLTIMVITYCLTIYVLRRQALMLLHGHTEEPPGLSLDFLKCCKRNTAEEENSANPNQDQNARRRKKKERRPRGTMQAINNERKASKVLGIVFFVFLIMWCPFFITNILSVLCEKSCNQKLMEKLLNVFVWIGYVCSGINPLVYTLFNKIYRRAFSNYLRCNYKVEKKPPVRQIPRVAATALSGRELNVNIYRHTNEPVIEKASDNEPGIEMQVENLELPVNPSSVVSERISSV
Briefly: Cellular functional assay, 5-HT2C serotoninergic receptors. The note with it: for 5-HT2C ag [%]: agonist mode, percent of control specific agonist response; for 5-HT2C antag [%]: antagonist mode. The protocol: (§2) The results are expressed as a percent of control specific agonist response ((measured specific response/control specific agonist response)×100) obtained in the presence of the test compounds.
(§3) The EC50 values (concentration producing a half-maximal specific response) and IC50 values (concentration causing a half-maximal inhibition of the control specific agonist response) were determined by non-linear regression analysis of the concentration-response curves generated with mean replicate values using Hill equation curve fitting (Y=D+[(A−D)/(1+(C/C50)nH)], where Y=specific response, D=minimum specific response, A=maximum specific response, C=compound concentration, and C50=EC50 or IC50, and nH=slope factor). This analysis was performed using a software developed at Cerep (Hill software) and validated by comparison with data generated by the commercial software SigmaPlot® 4.0 for Windows® (© 1997 by SPSS Inc.).
(§4) For the antagonists, the apparent dissociation constants (Kb) were calculated using the modified Cheng Prusoff equation (Kb=IC50/(1+(A/EC50A)), where A=concentration of reference agonist in the assay, and EC50A=EC50 value of the reference agonist).

Test [7] has as its target T2, 5-HT1A serotoninergic receptors (Homo sapiens, UniProt P08908).
T2 sequence (P08908 1-422): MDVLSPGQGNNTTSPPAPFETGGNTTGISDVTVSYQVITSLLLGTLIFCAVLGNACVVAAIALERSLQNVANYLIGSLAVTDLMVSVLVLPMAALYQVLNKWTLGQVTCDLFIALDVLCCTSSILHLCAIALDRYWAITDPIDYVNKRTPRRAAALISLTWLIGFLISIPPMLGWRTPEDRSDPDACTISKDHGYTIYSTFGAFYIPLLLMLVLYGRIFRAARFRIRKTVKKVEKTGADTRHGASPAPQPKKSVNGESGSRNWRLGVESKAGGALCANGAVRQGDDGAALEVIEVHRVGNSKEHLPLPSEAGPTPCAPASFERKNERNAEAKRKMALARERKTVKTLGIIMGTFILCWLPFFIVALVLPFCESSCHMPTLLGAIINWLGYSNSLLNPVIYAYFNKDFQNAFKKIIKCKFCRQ
Briefly: Cellular functional assay, 5-HT1A serotoninergic receptors. The note with it: for 5-HT1A ag [%]: agonist mode, percent of control specific agonist response. The protocol: as §2, §3, §4

The target of test [8] is T3, D4 dopaminergic receptors (Homo sapiens, UniProt P21917).
T3 sequence (P21917 1-419): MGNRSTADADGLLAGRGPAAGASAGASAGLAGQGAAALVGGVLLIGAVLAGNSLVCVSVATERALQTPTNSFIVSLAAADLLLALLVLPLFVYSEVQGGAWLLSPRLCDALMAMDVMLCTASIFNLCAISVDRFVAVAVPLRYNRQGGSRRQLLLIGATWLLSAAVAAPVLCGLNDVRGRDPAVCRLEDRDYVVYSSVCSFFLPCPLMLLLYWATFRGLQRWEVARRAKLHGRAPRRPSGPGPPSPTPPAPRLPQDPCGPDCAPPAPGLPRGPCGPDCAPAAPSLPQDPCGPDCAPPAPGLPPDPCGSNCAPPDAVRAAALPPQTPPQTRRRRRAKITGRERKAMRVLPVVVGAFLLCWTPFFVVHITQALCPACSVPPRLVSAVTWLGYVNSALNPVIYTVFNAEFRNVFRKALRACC
Put plainly: Cellular functional assay, D4 dopaminergic receptors. The note with it: D4.4 (h), CHO cells. The protocol: as §2, §3, §4

Where [9] appears, read: agonist mode, percent of control specific agonist response.

D3 dopaminergic receptors, sequence (P35462 whole entry): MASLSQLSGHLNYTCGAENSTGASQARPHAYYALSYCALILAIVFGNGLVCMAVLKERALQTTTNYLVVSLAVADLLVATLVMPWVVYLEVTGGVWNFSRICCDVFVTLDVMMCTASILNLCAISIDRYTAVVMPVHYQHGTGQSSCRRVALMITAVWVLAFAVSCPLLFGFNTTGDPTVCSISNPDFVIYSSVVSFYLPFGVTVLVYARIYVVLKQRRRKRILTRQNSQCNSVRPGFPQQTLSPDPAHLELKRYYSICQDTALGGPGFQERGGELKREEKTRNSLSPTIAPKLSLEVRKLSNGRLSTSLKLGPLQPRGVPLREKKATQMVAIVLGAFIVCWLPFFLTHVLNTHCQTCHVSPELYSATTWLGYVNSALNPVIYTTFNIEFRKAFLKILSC
5-HT6 serotoninergic receptors, sequence (P50406 whole entry): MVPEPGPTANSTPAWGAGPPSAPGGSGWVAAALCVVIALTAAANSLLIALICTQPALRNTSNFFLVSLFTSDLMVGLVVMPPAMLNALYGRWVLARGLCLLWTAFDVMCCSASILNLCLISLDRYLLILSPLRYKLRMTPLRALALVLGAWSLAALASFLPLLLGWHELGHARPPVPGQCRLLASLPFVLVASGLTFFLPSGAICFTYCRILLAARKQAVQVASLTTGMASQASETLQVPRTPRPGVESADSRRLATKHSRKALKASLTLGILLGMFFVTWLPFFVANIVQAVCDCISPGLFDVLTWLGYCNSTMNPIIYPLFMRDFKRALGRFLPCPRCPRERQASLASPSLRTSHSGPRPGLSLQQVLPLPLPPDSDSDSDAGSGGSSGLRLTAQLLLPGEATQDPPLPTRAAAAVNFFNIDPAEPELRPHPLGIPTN
D2 dopaminergic receptors, sequence (P14416 whole entry): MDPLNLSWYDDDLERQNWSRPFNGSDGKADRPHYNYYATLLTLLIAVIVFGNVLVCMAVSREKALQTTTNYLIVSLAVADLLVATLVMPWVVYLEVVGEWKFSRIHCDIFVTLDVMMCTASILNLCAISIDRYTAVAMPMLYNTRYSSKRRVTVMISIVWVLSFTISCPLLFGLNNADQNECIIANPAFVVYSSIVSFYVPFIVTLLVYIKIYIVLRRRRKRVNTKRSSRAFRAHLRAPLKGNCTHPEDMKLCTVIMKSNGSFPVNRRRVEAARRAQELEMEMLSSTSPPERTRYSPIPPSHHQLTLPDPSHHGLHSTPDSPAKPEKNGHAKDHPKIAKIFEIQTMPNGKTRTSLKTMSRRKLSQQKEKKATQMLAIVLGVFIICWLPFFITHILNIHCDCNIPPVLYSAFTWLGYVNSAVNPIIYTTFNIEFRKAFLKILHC
5-HT2A serotoninergic receptors, sequence (P28223 whole entry): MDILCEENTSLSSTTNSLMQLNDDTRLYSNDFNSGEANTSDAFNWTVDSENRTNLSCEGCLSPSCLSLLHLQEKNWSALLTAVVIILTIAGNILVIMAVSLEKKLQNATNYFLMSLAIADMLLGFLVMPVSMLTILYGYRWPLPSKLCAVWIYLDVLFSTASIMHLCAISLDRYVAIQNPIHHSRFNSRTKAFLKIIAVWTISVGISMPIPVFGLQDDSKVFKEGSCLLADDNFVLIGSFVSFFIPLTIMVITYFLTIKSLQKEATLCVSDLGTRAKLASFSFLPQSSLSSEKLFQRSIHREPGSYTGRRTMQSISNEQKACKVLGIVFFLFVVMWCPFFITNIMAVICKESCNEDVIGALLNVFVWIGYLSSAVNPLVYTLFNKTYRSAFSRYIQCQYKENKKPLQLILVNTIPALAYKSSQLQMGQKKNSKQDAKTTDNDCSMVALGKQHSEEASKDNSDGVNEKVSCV
5-HT7 serotoninergic receptors, sequence (P34969 whole entry): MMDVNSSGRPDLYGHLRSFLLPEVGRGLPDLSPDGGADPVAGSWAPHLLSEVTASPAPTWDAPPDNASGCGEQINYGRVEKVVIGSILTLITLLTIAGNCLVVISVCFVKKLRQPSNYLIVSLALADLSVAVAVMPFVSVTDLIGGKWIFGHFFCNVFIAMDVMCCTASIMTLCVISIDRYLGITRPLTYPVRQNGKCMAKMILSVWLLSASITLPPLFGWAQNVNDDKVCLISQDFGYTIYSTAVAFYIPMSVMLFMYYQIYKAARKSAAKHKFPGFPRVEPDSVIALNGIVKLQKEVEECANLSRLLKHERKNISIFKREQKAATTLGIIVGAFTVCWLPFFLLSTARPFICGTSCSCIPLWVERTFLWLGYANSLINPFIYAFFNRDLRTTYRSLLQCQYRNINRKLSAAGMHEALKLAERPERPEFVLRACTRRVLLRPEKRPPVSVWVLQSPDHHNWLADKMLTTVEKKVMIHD

For the compound `Cc1c(S(=O)(=O)N[C@H]2CCN(CCCc3noc4cc(F)ccc34)C2)sc2ccc(F)cc12` [Compound 203, 5-Fluoro-N-[(3S)-1-[3-(6-fluoro-1,2-benzoxazol-3-yl)propyl]pyrrolidin-3-yl]-3-methyl-benzothiophene-2-sulphonamide], in test [1], the “D3 ag [%]” value was determined as 11% and the “D3 antag [%]” value is 65%. Moreover, the “5-HT7 ag [%]” value in test [2] is given as 0%. Also, in test [3] (setting [9]), the “5-HT2A ag [%]” value was −1%. Also, in test [4], the “D2 ag [%]” value is given as 0% and the “D2 antag [%]” value is reported as 80%. The “5-HT6 ag [%]” value in test [5] is given as −2%. Besides, the “5-HT2C ag [%]” value in test [6] came to 1%.

As to `COc1ccc2cc(S(=O)(=O)N[C@@H]3CCN(CCCc4noc5cc(F)ccc45)C3)ccc2c1` [Compound 230, N-[(3R)-1-[3-(6-Fluoro-1,2-benzoxazol-3-yl)propyl]pyrrolidin-3-yl]-6-methoxy-naphthalene-2-sulphonamide], in test [1], the “D3 ag [%]” value was found to be 0% and the “D3 antag [%]” value amounted to 89%. In addition, the “5-HT2A ag [%]” value in test [3] (setting [9]) is recorded as −2%. In test [4], the “D2 ag [%]” value was 3% and the “D2 antag [%]” value came to 94%. Also, in test [5], the “5-HT6 ag [%]” value is on record as −1%. The “5-HT2C ag [%]” value in test [6] is −2%.

As to `Cc1ccc2sc(S(=O)(=O)N[C@@H]3CCN(CCCc4noc5cc(F)ccc45)C3)cc2c1` [Compound 228, N-[(3R)-1-[3-(6-Fluoro-1,2-benzoxazol-3-yl)propyl]pyrrolidin-3-yl]-5-methyl-benzothiophene-2-sulphonamide], in test [1], the “D3 ag [%]” value was −15% and the “D3 antag [%]” value is 98%. The “5-HT7 ag [%]” value in test [2] turned out to be 0%. Further, in test [3] (setting [9]), the “5-HT2A ag [%]” value is 1%. Besides, in test [4], the “D2 ag [%]” value is reported as −1% and the “D2 antag [%]” value turned out to be 94%. Also, the “5-HT6 ag [%]” value in test [5] is listed as −2%. Moreover, the “5-HT2C ag [%]” value in test [6] was 0%.

For the compound `CC(C)(C)c1ccc(S(=O)(=O)NCC2CN(CCOc3cccc4c3OCCO4)C2)cc1` [Compound 181, 4-tert-Butyl-N-[[1-[2-(2,3-dihydro-1,4-benzodioxin-5-yloxy)ethyl]azetidin-3-yl]methyl]benzenesulphonamide], in test [2], the “5-HT7 ag [%]” value came out at 0%. Also, the “5-HT1A ag [%]” value in test [7] came out at 66%. For the same compound, in test [6], the “5-HT2C ag [%]” value is given as 46% and the “5-HT2C antag [%]” value amounted to 6%.

With `O=S(=O)(NCC1CN(CCOc2cccc3c2OCCO3)C1)c1ccc(Cl)c(Cl)c1` [Compound 183, 3,4-Dichloro-N-[[1-[2-(2,3-dihydro-1,4-benzodioxin-5-yloxy)ethyl]azetidin-3-yl]methyl]benzenesulphonamide], the “5-HT7 ag [%]” value in test [2] amounted to 2%. For the same compound, the “5-HT2A ag [%]” value in test [3] is 1%. For the same compound, the “5-HT1A ag [%]” value in test [7] was found to be 71%. In test [4], the “D2 ag [%]” value came out at 8% and the “D2 antag [%]” value was 53%. In test [6], the “5-HT2C ag [%]” value turned out to be 50% and the “5-HT2C antag [%]” value is listed as 12%.

Consider `O=S(=O)(NC1CN(CCOc2cccc3c2OCCO3)C1)c1cccc2ccccc12` [Compound 94, N-[1-[2-(2,3-Dihydro-1,4-benzodioxan-8-yloxy)ethyl]azetidin-3-yl]-naphthalene-1-sulphonamide], for which the “D4 ag [%]” value in test [8] (agonism, percent of control specific agonist response (300 nM dopamine for control)) was determined as 60%. In test [8] (antagonism, stimulus dopamine (100 nM)), the “D4 antag [%]” value worked out at 9%. In addition, in test [1], the “D3 ag [%]” value came to 51% and the “D3 antag [%]” value was found to be 38%. Moreover, the “5-HT7 ag [%]” value in test [2] was found to be 19%. Also, the “5-HT7 antag [%]” value in test [2] (antagonist mode) is 68%. In test [3] (setting [9]), the “5-HT2A ag [%]” value is listed as 7%. Also, the “5-HT2A antag [%]” value in test [3] (antagonist mode) was found to be 48%. The “5-HT1A ag [%]” value in test [7] is 41%. Further, the “5-HT1A antag [%]” value in test [7] (antagonist mode) was 90%. For the same compound, in test [4], the “D2 ag [%]” value is given as 45% and the “D2 antag [%]” value stood at 99%. In test [6], the “5-HT2C ag [%]” value was 92% and the “5-HT2C antag [%]” value is −57%.
